Reference: patent US12649750B2, “Macrocyclic compounds, compositions, and methods of using thereof” (Sionna Therapeutics Inc., priority 2022, dated 2026)

Legend:
NBD1 = molecular target: T1, NBD1 (Homo sapiens, UniProt P13569); test: Aggregation analysis using differential static light scattering (DSLS), thermal stability of NBD1 (ΔTagg); assay type: binding; details: ΔTagg versus DMSO control, NBD1 0.2 mg/ml
T1 construct: Purified recombinant NBD1 was produced using previously described methods; made in house
T1 sequence (P13569 423-646 limits assumed): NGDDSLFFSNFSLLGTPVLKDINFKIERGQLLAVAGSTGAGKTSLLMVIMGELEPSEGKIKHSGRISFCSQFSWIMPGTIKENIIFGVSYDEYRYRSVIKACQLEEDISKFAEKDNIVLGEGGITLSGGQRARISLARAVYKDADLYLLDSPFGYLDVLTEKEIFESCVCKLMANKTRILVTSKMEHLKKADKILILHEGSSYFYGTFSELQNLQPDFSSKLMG
Outline: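 Stabilisation is measured as the shift in aggregation onset of recombinant NBD1 (0.2 mg/ml, 2 mM ATP, 5 mM MgCl2, pH7.6) exposed to compound. Images are taken every 0.5° C. while heating at 1° C. per minute, and the inflection-point Tagg is corrected by the DMSO mean.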

CFTR = molecular target: T2, CFTR (Homo sapiens, UniProt P13569, DEL508-508); test: TECC24 AUC fold over DMSO @10 μM, CFTR-mediated transepithelial chloride transport in CF-HBE cells; assay type: cell-based; details: test agent AUC divided by DMSO vehicle AUC, primary CF-HBE cells, ΔF508 homozygous donor, 48 hours incubation
T2 construct: Primary human bronchial epithelial cells from a ΔF508 homozygous CF donor; host or cells: primary human bronchial epithelial cells (CF-HBE), ΔF508 homozygous donor
T2 sequence (P13569 with tags, fused parts or gaps DEL508-508): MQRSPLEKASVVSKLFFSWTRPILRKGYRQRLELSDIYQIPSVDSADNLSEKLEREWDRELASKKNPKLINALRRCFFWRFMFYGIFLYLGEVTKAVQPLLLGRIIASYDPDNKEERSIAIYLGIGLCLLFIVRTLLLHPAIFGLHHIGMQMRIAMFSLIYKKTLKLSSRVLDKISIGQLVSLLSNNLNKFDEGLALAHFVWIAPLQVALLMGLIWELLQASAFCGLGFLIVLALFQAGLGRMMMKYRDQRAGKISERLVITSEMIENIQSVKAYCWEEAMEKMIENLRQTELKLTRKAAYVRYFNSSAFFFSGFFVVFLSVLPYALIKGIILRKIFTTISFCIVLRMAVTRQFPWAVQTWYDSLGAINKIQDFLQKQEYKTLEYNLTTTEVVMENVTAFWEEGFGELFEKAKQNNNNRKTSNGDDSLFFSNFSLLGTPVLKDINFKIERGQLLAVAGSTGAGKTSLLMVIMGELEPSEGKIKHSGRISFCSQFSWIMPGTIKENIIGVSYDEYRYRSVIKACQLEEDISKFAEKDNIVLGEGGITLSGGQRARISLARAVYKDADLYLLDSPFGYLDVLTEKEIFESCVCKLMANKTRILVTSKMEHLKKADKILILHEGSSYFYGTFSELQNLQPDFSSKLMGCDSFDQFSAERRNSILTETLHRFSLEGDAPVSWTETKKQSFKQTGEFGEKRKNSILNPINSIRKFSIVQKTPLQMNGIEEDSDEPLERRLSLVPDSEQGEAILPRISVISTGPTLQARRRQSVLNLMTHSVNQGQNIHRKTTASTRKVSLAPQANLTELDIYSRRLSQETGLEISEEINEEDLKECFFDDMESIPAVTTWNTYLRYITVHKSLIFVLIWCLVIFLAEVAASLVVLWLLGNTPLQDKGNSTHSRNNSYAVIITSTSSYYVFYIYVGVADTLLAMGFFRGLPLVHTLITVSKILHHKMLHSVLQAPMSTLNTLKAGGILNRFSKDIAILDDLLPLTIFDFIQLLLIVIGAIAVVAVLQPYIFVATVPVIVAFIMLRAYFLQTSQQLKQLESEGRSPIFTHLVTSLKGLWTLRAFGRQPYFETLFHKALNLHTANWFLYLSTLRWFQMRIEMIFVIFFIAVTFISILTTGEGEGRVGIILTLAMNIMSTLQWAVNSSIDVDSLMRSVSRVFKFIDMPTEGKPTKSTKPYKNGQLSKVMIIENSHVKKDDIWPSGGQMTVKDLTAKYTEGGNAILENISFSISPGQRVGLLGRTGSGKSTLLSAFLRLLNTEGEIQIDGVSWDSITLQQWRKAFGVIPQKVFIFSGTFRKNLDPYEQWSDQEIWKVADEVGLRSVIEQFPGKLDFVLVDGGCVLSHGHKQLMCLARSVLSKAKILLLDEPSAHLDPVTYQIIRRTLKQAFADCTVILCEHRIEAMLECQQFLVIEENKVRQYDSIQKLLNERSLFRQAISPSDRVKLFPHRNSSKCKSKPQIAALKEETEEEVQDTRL
Outline: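 Value is ratio of test-agent to DMSO AUC of equivalent transepithelial Cl− current, integrated from forskolin (10 μM) stimulation to CFTR inhibitor-172 (20 μM) block, with benzamil 10 μM present. CF-HBE (ΔF508/ΔF508) cultures had 48 h compound exposure at 10 μM, 36.5° C before recording.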

Structure (SMILES)	DSLS 3D (100 μM ΔT) (NBD1)	TECC (AUC, 10 μM) (CFTR)
C[C@H](Cc1ccc(C2(C)CCCC(C)(C)CS(=O)(=O)CCc3c(c(F)cc4[nH]ccc34)Oc3ccnc(c3)-c3nc2nn3C)s1)C(=O)O (single isomer, unassigned) [Compound 246A]	C (a value greater than 10 °C and less than or equal to 25 °C is marked “C”)	B (a value between 12-20 is marked “B”)
CC(Cc1cccc(C2(C)CCCC(C)(C)CS(=O)(=O)CCc3c(c(F)cc4[nH]ccc34)S(=O)(=O)c3ccc(F)c(c3)-c3nc2nn3C)c1)C(=O)O (single isomer, unassigned) [Compound 34A, 3-[3-(22,28-difluoro-3,6,10,10-tetramethyl-12,12,24,24-tetraoxo-12lambda6,24lambda6-dithia-3,4,19,30-tetrazapentacyclo[23.3.1.12,5.015,23.016,20]triaconta-1(29),2(30),4,15,17,20,22,25,27-nonaen-6-yl)phenyl]-2-methyl-propanoic Acid]	C (a value greater than 10 °C and less than or equal to 25 °C is marked “C”)	C (a value between 20 and 80 is marked “C”)
CCONC(=O)[C@@H](C)Cc1cccc(C2(C)CCCC(C)(C)CS(=O)(=O)CCc3c(c(F)cc4[nH]ccc34)Oc3ccc(F)c(c3)-c3nc2nn3C)c1 (single isomer, unassigned) [Compound 188]	B (a value above 5 °C and less than or equal to 10 °C is marked “B”)	B (a value between 12-20 is marked “B”)
Cn1nc2nc1-c1cc(ccn1)[S+]([O-])c1c(F)cc3[nH]ccc3c1CCS(=O)(=O)CC(C)(C)CCC[C@]2(C)c1cccc(CCS(C)(=O)=O)c1 (single isomer, unassigned) [Compound 243B]	C (a value greater than 10 °C and less than or equal to 25 °C is marked “C”)	C (a value between 20 and 80 is marked “C”)
CC(C)OC(=O)[C@@H](C)Cc1cccc(C2(C)CCCC(C)(C)CS(=O)(=O)CCc3c(c(F)cc4[nH]ccc34)Oc3ccc(F)c(c3)-c3nc2nn3C)c1 (single isomer, unassigned) [Compound 139]	B (a value above 5 °C and less than or equal to 10 °C is marked “B”)	C (a value between 20 and 80 is marked “C”)
C[C@H](Cc1cccc(C2(C)CCCC(C)(C)CS(=O)(=O)CCc3c(c(F)cc4[nH]ccc34)Cc3ccc(F)c(c3)-c3nc2nn3C)c1)C(=O)O (single isomer, unassigned) [Compound 169B]	A (an ΔTagg value less than or equal to 5 °C is marked “A”)	A (a TECC value less than 12 is marked “A”)
[2H]C([2H])([2H])C1(c2cccc(CC(C)C(=O)O)c2)CCC(C)(C)CCS(=O)(=O)CCc2c(c(F)cc3[nH]ccc23)Oc2ccc(F)c(c2)-c2nc1nn2C (single isomer, unassigned) [Compound 119A, 3-[3-[22,28-difluoro-3,9,9-trimethyl-12,12-dioxo-6-(trideuteriomethyl)-24-oxa-12lambda6-thia-3,4,19,30-tetrazapentacyclo[23.3.1.12,5.015,23.016,20]triaconta-1(29),2(30),4,15,17,20,22,25,27-nonaen-6-yl]phenyl]-2-methyl-propanoic acid]	A (an ΔTagg value less than or equal to 5 °C is marked “A”)	A (a TECC value less than 12 is marked “A”)
Cn1nc2nc1-c1cc(ccn1)Sc1c(F)cc3[nH]ccc3c1CCS(=O)(=O)CC(C)(C)CCC[C@]2(C)c1cccc(CC2(C(=O)O)CC2)c1 [Compound 272, 1-[[3-[(6R)-22-Fluoro-3,6,10,10-tetramethyl-12,12-dioxo-12λ6,24-dithia-3,4,19,28,30-pentazapentacyclo[23.3.1.12,5.015,23.016,20]triaconta-1(29),2(30),4,15,17,20,22,25,27-nonaen-6-yl]phenyl]methyl]cyclopropanecarboxylic Acid]	C (a value greater than 10 °C and less than or equal to 25 °C is marked “C”)	C (a value between 20 and 80 is marked “C”)
C[C@@H](Cc1cccc(C2CCCC(C)(C)CS(=O)(=O)CCc3c(c(F)cc4[nH]ccc34)C(=O)c3cccc(c3)-c3ccn2n3)c1)C(=O)O (stereo partly drawn) [Compound 163, (2S)-3-[3-(22-Fluoro-10,10-dimethyl-12,12,24-trioxo-12λ6-thia-5,19,30-triazapentacyclo[23.3.1.12,5.015,23.016,20]triaconta-1(29),2(30),3,15,17,20,22,25,27-nonaen-6-yl)phenyl]-2-methyl-propanoic Acid]	A (an ΔTagg value less than or equal to 5 °C is marked “A”)	A (a TECC value less than 12 is marked “A”)
Cn1nc2nc1-c1cc(ccc1F)Oc1c(F)cc3[nH]ccc3c1CCS(=O)(=O)CC(C)(C)CCCC2(C#N)c1cccc(CC2(C(=O)O)CC2)c1 (single isomer, unassigned) [Compound 122A, 1-[[3-(6-cyano-22,28-difluoro-3,10,10-trimethyl-12,12-dioxo-24-oxa-12λ6-thia-3,4,19,30-tetrazapentacyclo[23.3.1.12,5.015,23.016,20]triaconta-1(29),2(30),4,15,17,20,22,25,27-nonaen-6-yl)phenyl]methyl]cyclopropanecarboxylic Acid]	C (a value greater than 10 °C and less than or equal to 25 °C is marked “C”)	A (a TECC value less than 12 is marked “A”)
Cc1cn2nc1-c1cc(ccc1F)Oc1c(F)cc3[nH]ccc3c1CCS(=O)(=O)CC(C)(C)COCC2c1cccc(CCC(=O)O)c1 (single isomer, unassigned) [Compound 84B, 3-[3-(22,28-difluoro-3,10,10-trimethyl-12,12-dioxo-8,24-dioxa-12lambda6-thia-5,19,30-triazapentacyclo[23.3.1.12,5.015,23.016,20]triaconta-1(29),2(30),3,15,17,20,22,25,27-nonaen-6-yl)phenyl]propanoic acid]	A (an ΔTagg value less than or equal to 5 °C is marked “A”)	A (a TECC value less than 12 is marked “A”)
C[C@@H](Cc1cccc(C2(C)CCCC(C)(C)CS(=O)(=O)CCc3c(c(F)cc4[nH]ccc34)C(=O)c3ccc(F)c(c3)-c3nc2nn3C)c1)C(=O)O (single isomer, unassigned) [Compound 125B]	C (a value greater than 10 °C and less than or equal to 25 °C is marked “C”)	B (a value between 12-20 is marked “B”)
Cn1nc2nc1-c1cc(ccn1)C(=O)c1c(F)cc3[nH]ccc3c1CCS(=O)(=O)CC(C)(C)CCC[C@]2(C)c1cccc(CCC(=O)O)c1 [Compound 238, 3-[3-[(6R)-22-fluoro-3,6,10,10-tetramethyl-12,12,24-trioxo-12λ6-thia-3,4,19,28,30-pentazapentacyclo[23.3.1.12,5.015,23.016,20]triaconta-1(29),2(30),4,15,17,20,22,25,27-nonaen-6-yl]phenyl]propanoic acid]	C (a value greater than 10 °C and less than or equal to 25 °C is marked “C”)	A (a TECC value less than 12 is marked “A”)
CC(Cc1cccc(C2(N)CCCC(C)(C)CS(=O)(=O)CCc3c(c(F)cc4[nH]ccc34)Oc3ccc(F)c(c3)-c3nc2nn3C)c1)C(=O)O (stereo not shown) [Compound 138, 3-[3-(6-Amino-22,28-difluoro-3,10,10-trimethyl-12,12-dioxo-24-oxa-12λ6-thia-3,4,19,30-tetrazapentacyclo[23.3.1.12,5.015,23.016,20]triaconta-1(29),2(30),4,15,17,20,22,25,27-nonaen-6-yl)phenyl]-2-methyl-propanoic Acid]	C (a value greater than 10 °C and less than or equal to 25 °C is marked “C”)	C (a value between 20 and 80 is marked “C”)
Cn1nc2nc1-c1cc(ccc1F)Oc1c(F)cc3[nH]ccc3c1CCS(=O)(=O)CC(C)(C)CCC[C@]2(C)c1cccc(CC2(C(=O)O)CC2)c1 [Compound 288, 1-[[3-[(6R)-22,28-difluoro-3,6,10,10-tetramethyl-12,12-dioxo-24-oxa-12λ6-thia-3,4,19,30-tetrazapentacyclo[23.3.1.12,5.015,23.016,20]triaconta-1(29),2(30),4,15,17,20,22,25,27-nonaen-6-yl]phenyl]methyl]cyclopropanecarboxylic Acid]	C (a value greater than 10 °C and less than or equal to 25 °C is marked “C”)	C (a value between 20 and 80 is marked “C”)
Cn1nc2nc1-c1cc(ccc1F)Cc1c(F)cc3[nH]ccc3c1CCS(=O)(=O)CC(C)(C)CCCC2(C)c1cccc(/C=C/C(=O)O)c1 (racemic) [Compound 167, (E)-3-[3-(22,28-Difluoro-3,6,10,10-tetramethyl-12,12-dioxo-12λ6-thia-3,4,19,30-tetrazapentacyclo[23.3.1.12,5.015,23.016,20]triaconta-1(29),2(30),4,15,17,20,22,25,27-nonaen-6-yl)phenyl]prop-2-enoic Acid]	C (a value greater than 10 °C and less than or equal to 25 °C is marked “C”)	A (a TECC value less than 12 is marked “A”)
Cn1nc2nc1-c1cc(ccn1)[S+]([O-])c1c(F)cc3[nH]ccc3c1CCS(=O)(=O)CC(C)(C)CCC[C@]2(C)c1cccc(CCC(=O)O)c1F (single isomer, unassigned) [Compound 260A]	C (a value greater than 10 °C and less than or equal to 25 °C is marked “C”)	C (a value between 20 and 80 is marked “C”)
